# Test results taken from patent US9446053B2, “Method for enhancing the secretion of GLP-1 using bitter compounds” (priority 2013, dated 2016).
# Where two headings read alike, the source gives them in different places.
# What was measured:
# [1] = test system: intestinal endocrine cell line STC-1; assay: Bitter compound stimulating the secretion of GLP-1 of STC-1 cells (GLP-1 ELISA normalised to MTT cell viability, vehicle = 1); type: cell-based, mouse; settings: for secretion of GLP-1, fold comparing to the vehicle group: p<0.05; for fold induction at 1000 µM: 1 mM
# Method: The embodiment of the present invention use a proglucagon-expression cell line STC-1 for study. The STC-1 cells are divided into the experimental groups and the control group. […] The secretion of GLP-1 is obtained by calculating the data gathered from the experiment using the standard curve after treating intestinal endocrine cell line STC-1 with different bitter compounds. Cell viability is measured by MTT assay after treating intestinal endocrine cell line STC-1 with different bitter compounds. The ratio of the amount of GLP-1 secreted to the cell viability in each experiment is the fold of that given bitter compound stimulating the secretion of GLP-1 of the intestinal endocrine cell line STC-1. […] Moreover, co-administering specific bitter compound, bitter taste receptor inhibitor or phospholipase C (PLC) inhibitor can further determine the bitter taste receptor corresponded to the bitter compound. The above mentioned testing methods are explained in detailed as follow:
# For the embodiment of the ability of bitter compound stimulating secretion of GLP-1 of the intestinal endocrine cell line STC-1, the experiment procedure of the stimulation of GLP-1 secretion is referred in FIG. 1.
# (§1) S3: The STC-1 cell line was treated by a bitter compound.
# (§2) S4: Supernatant was collected via centrifugation and the remaining growth medium was removed after 1 hour and the amount of cell was measured by MTT assay.
# S5: Supernatant from S4 was centrifuged again at 500×g for 5 minutes. After eliminating cell debris, the resulting supernatant was collected and stored at −80° C. for the analysis of GLP-1 secretion using commercial kit Millipore EGLP-35K. The sensitivity of the kit is between 2-100 pM. […] The result was shown in the amount of GLP-1 secreted per unit cell. To prevent over-discrepant results between batches and for the ease of statistic, each vehicle group was taken as 1, which is the comparison of result of each sample of that experiment.
# (§3) Before measuring the amount of GLP-1 secreted, all reagents were placed on ice until fully dissolved. 10× washing buffer concentrate were diluted 10 times using distilled water; STC-1 cell line was dissolved using 1 mL distilled water and was diluted 200 times using phosphate buffered saline (PBS). 300 μL/well of 1× wash buffer were added and were placed for 5 minutes at room temperature then were poured out. 200 μL/well of assay buffer were added to NSB, while 100 μL/well of assay buffer were added to the remaining wells. 100 μL of Standards, QC or STC-1 cell line were then added to the wells accordingly, and then the 96-well plate was shaken moderately for an even mixture within each well. Plates were then being sealed allowing reaction to take place at 4° C. for 20-24 hours. Plates were then washed 5 times by 300 μL/well of 1× wash buffer and placed for 5 minutes. 200 μL/well of detection conjugate was added allowing reactions to take place at room temperature for 2 hours. It was then washed 3 times by 300 μL/well of 1× wash buffer. 200 μL/well of diluted STC-1 cell line was added allowing reaction to take place at room temperature and light-free environment for approximately 20 minutes. 50 μL/well of stop solution was added to stop the reaction at room temperature and light-free environment for 5 minutes. Finally, the concentration of GLP-1 was calculated using the data obtained and the standard curve.
# Principle of MTT assay: Methylthiazolyldiphenyl-tetrazolium bromide (MTT), or 3-(4,5-cimethylthiazol-2-yl)-2,5-diphenyl tetrazolium bromide, is a yellow dye which can be reduced by dehydrogenase of mitochondria in living cells, forming an insoluble purple crystal, formazan. Thus, it is often used for the screening of the effect of materials upon the cell growth and proliferation.
# [2] = test system: intestinal endocrine cell line STC-1; assay: GLP-1 secretion of STC-1 cells when allyl isothiocyanate and bitter taste receptor inhibitor probenecid are co-administered; type: cell-based, mouse
# Source text: The embodiment of the present invention use a proglucagon-expression cell line STC-1 for study. The STC-1 cells are divided into the experimental groups and the control group. The control groups are also called vehicle groups, which is the comparison of result of each experiment taken as 1. The secretion of GLP-1 is obtained by calculating the data gathered from the experiment using the standard curve after treating intestinal endocrine cell line STC-1 with different bitter compounds. Cell viability is measured by MTT assay after treating intestinal endocrine cell line STC-1 with different bitter compounds. The ratio of the amount of GLP-1 secreted to the cell viability in each experiment is the fold of that given bitter compound stimulating the secretion of GLP-1 of the intestinal endocrine cell line STC-1. By comparing experimental groups and vehicle groups, the difference between different bitter compounds in terms of their ability to stimulate the secretion of GLP-1 of the intestinal endocrine cell line STC-1 can be observed. Moreover, co-administering specific bitter compound, bitter taste receptor inhibitor or phospholipase C (PLC) inhibitor can further determine the bitter taste receptor corresponded to the bitter compound. The above mentioned testing methods are explained in detailed as follow:
# S1: 6.39×10^4 cells were planted with 10% FBS DMEM (high glucose) in 48-well culture tray and were incubated for 48 hours.
# S2: After 48 hours when the cell growth reached 85%, culture medium was changed into 10% FBS DMEM (low glucose) for a 3-hour starvation and then followed by the treatment of 0.2% BSA DEME (low glucose).
# as §1, §2
# S5: Supernatant from S4 was centrifuged again at 500×g for 5 minutes. After eliminating cell debris, the resulting supernatant was collected and stored at −80° C. for the analysis of GLP-1 secretion using commercial kit Millipore EGLP-35K. The sensitivity of the kit is between 2-100 pM. The amount of GLP-1 secreted of each vehicle group is between 50-150 pM according to the batch, therefore, it is advised that the supernatant being diluted 4 times before the analysis. The result was shown in the amount of GLP-1 secreted per unit cell. To prevent over-discrepant results between batches and for the ease of statistic, each vehicle group was taken as 1, which is the comparison of result of each sample of that experiment.
# as §3, with “Finally, the concentration of GLP-1 was calculated using the data obtained and the standard curve.” left out
# [3] = STC-1 cells treated by 20 μg/mL
# [4] = STC-1 cells treated by 50 μg/mL
# [5] = STC-1 cells treated by 100 μg/mL
# [6] = STC-1 cells treated by 200 μg/mL
# [7] = Mus musculus, STC-1 cells, 1 hour treatment, vehicle = 1, read-out: Fold (largest fold of GLP-1 secretion vs vehicle group)
# [8] = Mus musculus, STC-1, 1 h, read-out: Fold (largest fold of GLP-1 secretion vs vehicle group)
smiles,measurement,setting,value
"CC(C)=C/C=C/[C@@H](C)[C@H]1CC[C@@]2(C)c3ccc4c(c3CC[C@]12C)CC[C@H](O)C4(C)C [Compound of formula II, 19-nor-cucurbita-5(10),6,8,22(E),24-pentaen-3β-ol]","secretion of GLP-1, fold comparing to the vehicle group",[1]; STC-1 cells treated by 5 μg/mL,1.66 fold
same,"secretion of GLP-1, fold comparing to the vehicle group",[1]; [3],2.28 fold
same,"secretion of GLP-1, fold comparing to the vehicle group",[1]; [4],4.53 fold
same,"secretion of GLP-1, fold comparing to the vehicle group",[1]; [5],6.05 fold
same,"secretion of GLP-1, fold comparing to the vehicle group",[1]; [6],6.16 fold
"CC[N+](CC)(CC(=O)Nc1c(C)cccc1C)Cc1ccccc1 [Denatonium benzoate, reference compound]",fold induction at 2500 µM,"[1]; Mus musculus, STC-1 cells, 2.5 mM, 1 hour treatment, vehicle = 1, read-out: Fold (largest fold of GLP-1 secretion vs vehicle group)",2.97
"C=C[C@H]1C[N@@]2CC[C@H]1C[C@H]2[C@H](O)c1ccnc2ccc(OC)cc12 [Quinine, reference compound]",fold induction at 80 µM,"[1]; Mus musculus, STC-1 cells, 80 μM, 1 hour treatment, vehicle = 1, read-out: Fold (largest fold of GLP-1 secretion vs vehicle group)",1.9
"CC1(C)O[C@H]2CC(=O)OC[C@]23[C@H]2CC[C@@]4(C)[C@H](c5ccoc5)OC(=O)[C@H]5O[C@]54[C@]2(C)C(=O)C[C@@H]13 [Limonin, reference compound]",fold induction at 200 µM,"[1]; Mus musculus, STC-1 cells, 200 μM, 1 hour treatment, vehicle = 1, read-out: Fold (largest fold of GLP-1 secretion vs vehicle group)",1.22
"COc1cc2c(cc1OC)[C@@]13CCN4CC5=CCO[C@H]6CC(=O)N2[C@H]1[C@H]6[C@H]5C[C@H]43 [Brucine, reference compound]",fold induction at 50 µM,"[1]; Mus musculus, STC-1 cells, 50 μM, 1 hour treatment, vehicle = 1, read-out: Fold (largest fold of GLP-1 secretion vs vehicle group)",1.54
C=CCN=C=S [Allyl isothiocyanate],fold induction at 10 µM,"[1]; Mus musculus, STC-1 cells, 10 μM, 1 hour treatment, vehicle = 1, read-out: Fold (largest fold of GLP-1 secretion vs vehicle group)",4.06
same,secretion of GLP-1 comparing to the vehicle groups (in words),"[1]; STC-1 cells, 1.0 μM, 2.0 μM, 5.0 μM and 10.0 μM, dose-dependent manner",significantly increase the secretion of GLP-1
same,Fold (largest fold of GLP-1 secretion vs vehicle group),"[1]; STC-1 cells, 10 μM, 1 hour treatment, vehicle = 1",↑4.06 fold
same,"secretion of GLP-1, fold of the vehicle group","[2]; 0.5 mM of probenecid jointly applied, first of three allyl isothiocyanate concentrations, p<0.001",1.14 fold
same,"secretion of GLP-1, fold of the vehicle group","[2]; 0.5 mM of probenecid jointly applied, second of three allyl isothiocyanate concentrations, p<0.001",1.40 fold
same,"secretion of GLP-1, fold of the vehicle group","[2]; 0.5 mM of probenecid jointly applied, third of three allyl isothiocyanate concentrations, p<0.001",1.93 fold
same,"secretion of GLP-1, fold of the vehicle group","[2]; 1.0 mM of probenecid jointly applied, first of three allyl isothiocyanate concentrations, p<0.001",0.86 fold
same,"secretion of GLP-1, fold of the vehicle group","[2]; 1.0 mM of probenecid jointly applied, second of three allyl isothiocyanate concentrations, p<0.001",1.07 fold
same,"secretion of GLP-1, fold of the vehicle group","[2]; 1.0 mM of probenecid jointly applied, third of three allyl isothiocyanate concentrations, p<0.001",1.51 fold
same,"secretion of GLP-1, fold of the vehicle group","[2]; allyl isothiocyanate solely applied, first of three concentrations, p<0.05",1.44 fold
same,"secretion of GLP-1, fold of the vehicle group","[2]; allyl isothiocyanate solely applied, second of three concentrations, p<0.05",2.05 fold
same,"secretion of GLP-1, fold of the vehicle group","[2]; allyl isothiocyanate solely applied, third of three concentrations, p<0.05",3.44 fold
"CC1=CC(=O)[N-]S(=O)(=O)O1.[K+] [Acesulfame K, reference compound]",Fold (largest fold of GLP-1 secretion vs vehicle group),"[1]; STC-1 cells, 10 mM, 1 hour treatment, vehicle = 1",↑1.90 fold
"O=C1NS(=O)(=O)c2ccccc21 [Saccharin, reference compound]",fold induction at 1000 µM,[1]; [7],4.84
"Cn1c(=O)c2c(ncn2C)n(C)c1=O [Caffeine, reference compound]",fold induction at 1000 µM,[1]; [7],1.72
"O=C1C[C@@H]2OCC=C3CN4CC[C@]56c7ccccc7N1[C@H]5[C@H]2[C@H]3C[C@H]46 [Strychnine, reference compound]",fold induction at 50 µM,[1]; [8],1.91
"CC(C)=CC(O)C[C@@H](C)[C@H]1CC[C@@]2(C)[C@@H]3C=C[C@@]45OC[C@]3(CC[C@]12C)C4CC[C@H](O)C5(C)C (stereo partly drawn) [Compound of formula IV, 5β,19-epoxycucurbita-6,24-diene-3β,23ξ-diol]","secretion of GLP-1, fold comparing to the vehicle group",[1]; STC-1 cells treated by 5 μg/mL,1.37 fold
same,"secretion of GLP-1, fold comparing to the vehicle group",[1]; [3],1.49 fold
same,"secretion of GLP-1, fold comparing to the vehicle group",[1]; [4],1.84 fold
same,"secretion of GLP-1, fold comparing to the vehicle group",[1]; [5],2.76 fold
same,"secretion of GLP-1, fold comparing to the vehicle group",[1]; [6],3.68 fold
"CCN(CC)CCCC(C)Nc1ccnc2cc(Cl)ccc12 (stereo not shown) [Chloroquine, reference compound]",fold induction at 5 µM,[1]; [8],1.78
